Data: article PMC6004566 (ACS Medicinal Chemistry Letters, 2018)
Blank lines part the entries; values can stand above or below the compound they belong to.

Tests used:
NOTUM [1] = molecular target: T1, NOTUM (Homo sapiens, UniProt Q6P988); assay type: biochemical; conditions: SW620 CM; for inhibitory activity for NOTUM: competitive gel-based ABPP
T1 sequence (Q6P988 20-496): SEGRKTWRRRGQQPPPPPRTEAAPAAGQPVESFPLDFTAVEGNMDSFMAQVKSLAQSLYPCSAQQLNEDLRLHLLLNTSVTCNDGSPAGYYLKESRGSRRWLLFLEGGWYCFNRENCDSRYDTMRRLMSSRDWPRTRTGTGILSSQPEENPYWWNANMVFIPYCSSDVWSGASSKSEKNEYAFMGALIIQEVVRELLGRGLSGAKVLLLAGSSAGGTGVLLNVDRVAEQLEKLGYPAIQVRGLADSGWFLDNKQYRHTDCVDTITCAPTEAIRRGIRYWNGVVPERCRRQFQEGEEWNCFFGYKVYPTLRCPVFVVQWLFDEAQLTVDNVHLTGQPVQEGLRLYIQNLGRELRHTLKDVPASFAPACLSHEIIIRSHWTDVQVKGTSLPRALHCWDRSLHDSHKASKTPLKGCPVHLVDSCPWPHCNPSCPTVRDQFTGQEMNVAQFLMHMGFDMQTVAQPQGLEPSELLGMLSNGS

[2] = test system: FP-biotin-enriched proteins of SW620 conditioned media; experiment: Quantitative MS-based ABPP of SW620 CM; assay type: biochemical, human; conditions: 0.5 and 10 μM; both CM and SW620 in situ treated cells
PPT1 = molecular target: T2, PPT1 (Homo sapiens, UniProt P50897); assay type: cell-based; conditions: SW620 cells in situ 2 h; ABC45 probe 1 µM
T2 sequence (P50897 28-306): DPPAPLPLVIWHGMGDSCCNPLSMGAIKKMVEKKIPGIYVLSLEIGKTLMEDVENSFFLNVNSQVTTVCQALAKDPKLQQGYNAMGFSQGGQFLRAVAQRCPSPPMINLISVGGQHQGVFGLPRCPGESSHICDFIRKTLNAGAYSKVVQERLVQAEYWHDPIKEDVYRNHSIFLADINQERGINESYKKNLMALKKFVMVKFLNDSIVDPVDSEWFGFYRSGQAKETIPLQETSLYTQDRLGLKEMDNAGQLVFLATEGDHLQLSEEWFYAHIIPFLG

ABHD6 = molecular target: T3, ABHD6 (Homo sapiens, UniProt Q9BV23); experiment: MS-based ABPP, SW620 cells in situ; assay type: cell-based; conditions: 10 µM, Supplementary Figure 3
T3 sequence (Q9BV23 1-337): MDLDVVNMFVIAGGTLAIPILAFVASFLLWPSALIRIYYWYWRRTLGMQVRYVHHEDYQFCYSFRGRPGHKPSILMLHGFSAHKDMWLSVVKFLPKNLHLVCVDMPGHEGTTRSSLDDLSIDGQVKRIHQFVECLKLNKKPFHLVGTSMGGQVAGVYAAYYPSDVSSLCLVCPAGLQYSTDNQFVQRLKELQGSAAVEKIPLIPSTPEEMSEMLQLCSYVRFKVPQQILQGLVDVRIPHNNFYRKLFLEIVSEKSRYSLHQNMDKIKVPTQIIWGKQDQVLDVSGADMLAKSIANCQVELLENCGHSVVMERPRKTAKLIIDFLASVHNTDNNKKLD

NOTUM [3] = molecular target: T1, NOTUM; experiment: Competitive gel-based ABPP; assay type: biochemical; conditions: 10 μM, 30 min pretreatment at 37 °C; CM of WT-NOTUM-transfected HEK293T cells
NOTUM [4] = molecular target: T1, NOTUM; experiment: ABC99yne direct labeling; conditions: 0.1 μM probe; CM and cellular lysate of SW620 cells; Rh-N3 click
serine hydrolases = experiment: Competitive gel-based ABPP; assay type: cell-based, human; conditions: SW620 soluble and membrane proteomes, in situ 2 h, 37 °C, FP-Rh

- inhibitory activity for NOTUM (NOTUM [1]): completely lost activity
Structure (SMILES): COc1ccc(N2CCN(C(=O)ON3C(=O)C4CN(Cc5cccc(Cl)c5)CCN4C3=O)CC2)cc1 (stereo not drawn) [ABC91]

Structure (SMILES): O=C1C2CN(Cc3ccc(Cl)cc3)CCN2C(=O)N1OC(=O)N1CCOc2ccccc21 (stereo not drawn) [ABC99]
- cross-reactivity with the 64 additional serine hydrolases quantified by MS-ABPP [2]: virtually no cross-reactivity
- PPT1 inhibition (PPT1): did not cross-react

Structure (SMILES): O=C(c1ccc(Cl)cc1)N1CCN2C(=O)N(OC(=O)N3CCOc4ccccc43)C(=O)C2C1 (stereo not drawn) [ABC101]
- inhibition of ABHD6 (ABHD6): maintained inhibition of ABHD6
- inhibitory activity for NOTUM (NOTUM [1]): lost inhibitory activity for NOTUM

- FP-Rh reactivity with NOTUM (NOTUM [3]): blocked FP-Rh reactivity with NOTUM
Structure (SMILES): COc1ccc(N2CCN(C(=O)ON3C(=O)C4CN(Cc5ccc(Br)cc5)CCN4C3=O)CC2)cc1 (stereo not drawn) [ABC28]

- IC50 for blockade of FP-Rh reactivity of NOTUM (NOTUM [1]; 30 min, 37 °C): sub-micromolar
Structure (SMILES): C#CCN1CCN(C(=O)ON2C(=O)C3CN(Cc4ccc(Cl)cc4)CCN3C2=O)c2ccccc21 (stereo not drawn) [ABC99yne]
- direct labeling selectivity (NOTUM [4]): highly selective labeling of NOTUM with no other cross-reactive proteins observed

- PPT1 inhibition (PPT1): potent inhibitor of PPT1
Structure (SMILES): COc1ccc(N2CCN(C(=O)ON3C(=O)C4CN(Cc5ccc(Cl)cc5)CCN4C3=O)CC2)cc1 (stereo not drawn) [ABC90]
- selectivity across serine hydrolases (serine hydrolases): only a single major site of ABC90 cross reactivity was observed; a 35 kDa protein that we suspected was ABHD6

- FP-Rh reactivity with NOTUM (NOTUM [3]): blocked FP-Rh reactivity with NOTUM
Structure (SMILES): O=C1C2CN(Cc3ccc(Oc4ccccc4)nc3)CCN2C(=O)N1OC(=O)N1CCOc2ccccc21 (stereo not drawn) [ABC63]
- PPT1 inhibition (PPT1): did not inhibit PPT1 at concentrations up to 10 μM
